Data set [1] concerns T1, EsiGMD2.
T1 construct: gene GMD2; synthesized gene, pET32a, E. coli BL21(DE3), His-resin purified
Description: enzyme kinetics (GDP-mannose dehydrogenase activity). It is filed as biochemical, Ectocarpus siliculosus. To be noted: read-out: NAD / k m; co-substrate GDP-mannose; optimum pH 8.75–9, 30–37 °C; unit as in table header, probably a misprint for μM; heading: NAD / k m. The source says:
enzyme kinetics (GDP-mannose dehydrogenase activity) on EsiGMD2

Data set [2] concerns T2, EsiGMD3.
T2 construct: gene GMD3; synthesized gene, pET32a, E. coli BL21(DE3), His-resin purified
The description is as above. It counts as biochemical, Ectocarpus siliculosus. To be noted: read-out: NAD / k m; co-substrate GDP-mannose; optimum pH 8.75, 30–37 °C; unit as in table header, probably a misprint for μM; heading: NAD / k m. The source says:
enzyme kinetics (GDP-mannose dehydrogenase activity) on EsiGMD3

Substrate in data set [3]: O=P(O)(O)O[C@H]1O[C@H](CO)[C@@H](O)[C@H](O)[C@@H]1O
Description: enzyme kinetics, double reciprocal plot (phosphomannomutase activity). It counts as biochemical, Saccharina japonica. To be noted: optimum pH 7.4, 25 °C.

Substrate in data set [4]: O=P(O)(O)O[C@H]1O[C@H](CO)[C@@H](O)[C@H](O)[C@H]1O
Description: enzyme kinetics, double reciprocal plot (phosphoglucomutase activity). To be noted: optimum pH 7.0, 30 °C. It is filed as biochemical, Saccharina japonica.

With `NC(=O)c1ccc[n+]([C@@H]2O[C@H](COP(=O)(O)OP(=O)(O)OC[C@H]3O[C@@H](n4cnc5c(N)ncnc54)[C@H](O)[C@@H]3O)[C@@H](O)[C@H]2O)c1` [NAD], the Km in data set [1] amounted to 79.6 µM; in data set [2], 43.5 µM.

B1: SjaPMM (Saccharina japonica) (protein)
chain: MSVTKNPRIIALFDVDGTLTAARKEVLPDMVEFIKTLRERITIGVVGGSDLPKQKEQLGESVMEDYDYSFSQNGLVAYKAGELIGQQTISKHVGEENLKKIINWVLKYMSGIDIPVKRGTFIEFRTGMLNISPVGRNCSQEERDAFEQYDNVHKIRETMVAAMREEFADLNLTFSIGGQISFDLFPTGWDKTFCLQFLGEGTAEYDEIHFFGDKTFKGGNDNEIFESERTIGHTVTSPADTIQQCKELFFKD
notes: synthesized gene, pET32a, E. coli BL21(DE3), His-resin purified
In the case of B1, the Km came to 699.41 µM in data set [3] and 41.04 µM in data set [4].

The values are drawn from paper PMC5778160, “Functional genomics analysis reveals the biosynthesis pathways of important cellular components (alginate and fucoidan) of Saccharina” (Current Genetics, 2017).
